Patent US20230293518A1 (Edgewise Therapeutics, Inc., priority 2020, published 2023)

Target: skeletal myofibrils (myosin ATPase)
Experiment: Skeletal Myofibril ATPase Assay
Type: biochemical
How it was run: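 IC50 came from four-parameter logistic fits, bottom constrained ≥0, of (Max−Min) A340 values normalised to 1% DMSO controls. Readings were taken kinetically over 45 min at 1.5-2 min intervals, with ADP from myofibril myosin ATPase coupled through PK-LDH to NADH oxidation. Buffer was pCa (PIPES/CaCl2/EGTA), pH 7.0.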

Row | SMILES | IC50 (Table 4B) | IC50 (Table 4C)
1 | CCNC(=O)Cn1nc(-c2ccc(OC(F)F)cc2)cc(C)c1=O [II-21, 2-(3-(4-(difluoromethoxy)phenyl)-5-methyl-6-oxopyridazin-1(6H)-yl)-N-ethylacetamide] | > 100 µM | –
2 | O=C(Cn1nc(-c2ccc(OCC(F)(F)F)cc2)ccc1=O)N1CC(c2ccccc2)C1 [II-22, 2-(2-oxo-2-(3-phenylazetidin-1-yl)ethyl)-6-(4-(2,2,2-trifluoroethoxy)phenyl)pyridazin-3(2H)-one] | < 10 µM | –
3 | O=C(Cn1nc(-c2ccc(OCC(F)(F)F)cc2)ccc1=O)N1CCC1c1ccccc1 (stereo not shown) [II-23, 2-(2-oxo-2-(2-phenylazetidin-1-yl)ethyl)-6-(4-(2,2,2-trifluoroethoxy)phenyl)pyridazin-3(2H)-one] | < 10 µM | –
4 | O=C(Cn1nc(-c2ccc(OCC(F)(F)F)cc2)ccc1=O)NCc1ccc(CO)cc1 [II-24, N-(4-(hydroxymethyl)benzyl)-2-(6-oxo-3-(4-(2,2,2-trifluoroethoxy)phenyl)pyridazin-1(6H)-yl)acetamide] | > 100 µM | –
5 | O=C(Cn1nc(-c2ccc(OCC(F)(F)F)cc2)ccc1=O)NCc1ccncc1Cl [II-25, N-((3-chloropyridin-4-yl)methyl)-2-(6-oxo-3-(4-(2,2,2-trifluoroethoxy)phenyl)pyridazin-1(6H)-yl)acetamide] | > 100 µM | –
6 | O=C(Cn1nc(-c2ccc(OCC(F)(F)F)cc2)ccc1=O)NCc1ccc[nH]c1=O [II-26, N-((2-oxo-1,2-dihydropyridin-3-yl)methyl)-2-(6-oxo-3-(4-(2,2,2-trifluoroethoxy)phenyl)pyridazin-1(6H)-yl)acetamide] | 10 to 100 µM | –
7 | CCOc1ccc(-c2ccc(=O)n(CC(=O)NCc3ccccc3Cl)n2)cc1 [IIIa-1, N-(2-chlorobenzyl)-2-(3-(4-ethoxyphenyl)-6-oxopyridazin-1(6H)-yl)acetamide] | – | < 10 µM
8 | CC(C)Oc1ccc(-c2ccc(=O)n(CC(=O)NCc3ccccc3Cl)n2)cc1 [IIIa-2, N-(2-chlorobenzyl)-2-(3-(4-isopropoxyphenyl)-6-oxopyridazin-1(6H)-yl)acetamide] | – | < 10 µM
9 | CCNC(=O)Cn1nc(-c2ccc(OC)cc2)ccc1=O [IIIa-3, N-ethyl-2-(3-(4-methoxyphenyl)-6-oxopyridazin-1(6H)-yl)acetamide] | – | < 10 µM
10 | COc1ccc(-c2ccc(=O)n(CC(=O)NCC3CCCCC3)n2)cc1 [IIIa-4, N-(cyclohexylmethyl)-2-(3-(4-methoxyphenyl)-6-oxopyridazin-1(6H)-yl)acetamide] | – | < 10 µM
11 | COc1ccc(-c2ccc(=O)n(CC(=O)NCCc3ccccc3)n2)cc1 [IIIa-5, 2-(3-(4-methoxyphenyl)-6-oxopyridazin-1(6H)-yl)-N-phenethylacetamide] | – | < 10 µM
12 | CCOc1ccc(-c2ccc(=O)n(CC(=O)NC(C)C)n2)cc1 [IIIa-6, 2-(3-(4-ethoxyphenyl)-6-oxopyridazin-1(6H)-yl)-N-isopropylacetamide] | – | < 10 µM
13 | COc1ccc(-c2ccc(=O)n(CC(=O)NCc3cc(F)ccc3Cl)n2)cc1 [IIIa-7, N-(2-chloro-5-fluorobenzyl)-2-(3-(4-methoxyphenyl)-6-oxopyridazin-1(6H)-yl)acetamide] | – | < 10 µM
14 | COc1ccc(-c2ccc(=O)n(CC(=O)NCc3cccc(Cl)c3)n2)cc1 [IIIa-8, N-(3-chlorobenzyl)-2-(3-(4-methoxyphenyl)-6-oxopyridazin-1(6H)-yl)acetamide] | – | < 10 µM
15 | COc1ccc(-c2ccc(=O)n(CC(=O)NC(C)(C)c3ccccc3)n2)cc1 [IIIa-9, 2-(3-(4-methoxyphenyl)-6-oxopyridazin-1(6H)-yl)-N-(2-phenylpropan-2-yl)acetamide] | – | < 10 µM
16 | COc1ccc(-c2ccc(=O)n(CC(=O)NCc3cccc(C)c3)n2)cc1 [IIIa-10, 2-(3-(4-methoxyphenyl)-6-oxopyridazin-1(6H)-yl)-N-(3-methylbenzyl) acetamide] | – | < 10 µM
17 | COc1ccc(-c2ccc(=O)n(CC(=O)NCc3ccccc3C(F)(F)F)n2)cc1 [IIIa-11, 2-(3-(4-methoxyphenyl)-6-oxopyridazin-1(6H)-yl)-N-(2-(trifluoromethyl)benzyl)acetamide] | – | < 10 µM
18 | COc1ccc(-c2ccc(=O)n(CC(=O)NCc3ccc(Cl)cc3Cl)n2)cc1 [IIIa-12, N-(2,4-dichlorobenzyl)-2-(3-(4-methoxyphenyl)-6-oxopyridazin-1(6H)-yl)acetamide] | – | < 10 µM
19 | COc1ccc(-c2ccc(=O)n(CC(=O)NCc3ccccc3Cl)n2)c(F)c1 [IIIa-13, N-(2-chlorobenzyl)-2-(3-(2-fluoro-4-methoxyphenyl)-6-oxopyridazin-1(6H)-yl)acetamide] | – | < 10 µM
20 | COc1ccc(-c2ccc(=O)n(CC(=O)NCc3ccc(C)cc3)n2)cc1 [IIIa-15, 2-(3-(4-methoxyphenyl)-6-oxopyridazin-1(6H)-yl)-N-(4-methylbenzyl) acetamide] | – | < 10 µM
21 | COc1ccc(-c2ccc(=O)n(CC(=O)NCc3ccccc3C)n2)cc1 [IIIa-16, 2-(3-(4-methoxyphenyl)-6-oxopyridazin-1(6H)-yl)-N-(2-methylbenzyl) acetamide] | – | < 10 µM
22 | COc1ccc(-c2ccc(=O)n(CC(=O)NCc3ccc(Cl)cc3)n2)cc1 [IIIa-17, N-(4-chlorobenzyl)-2-(3-(4-methoxyphenyl)-6-oxopyridazin-1(6H)-yl)acetamide] | – | < 10 µM

Row | SMILES | IC50 (Table 4B) | IC50 (Table 4C)
23 | CCc1ccc(-c2ccc(=O)n(CC(=O)NCc3ccccc3Cl)n2)cc1 [IIIa-18, N-(2-chlorobenzyl)-2-(3-(4-ethylphenyl)-6-oxopyridazin-1(6H)-yl)acetamide] | – | < 10 µM
24 | CCNC(=O)Cn1nc(-c2ccc(C3CC3)cc2)ccc1=O [IIIa-19, 2-(3-(4-cyclopropylphenyl)-6-oxopyridazin-1(6H)-yl)-N-ethylacetamide] | – | < 10 µM
25 | COc1ccc(-c2ccc(=O)n(CC(=O)NC3(c4ccccc4Cl)CC3)n2)cc1 [IIIa-20, N-(1-(2-chlorophenyl)cyclopropyl)-2-(3-(4-methoxyphenyl)-6-oxopyridazin-1(6H)-yl)acetamide] | – | 10 to 100 µM
26 | CNC(=O)Cn1nc(-c2ccc(OC)cc2)ccc1=O [IIIa-21, 2-(3-(4-methoxyphenyl)-6-oxopyridazin-1(6H)-yl)-N-methylacetamide] | – | 10 to 100 µM
27 | COc1ccc(-c2ccc(=O)n(CC(=O)NCc3ccccc3Cl)n2)c(C)c1 [IIIa-22, N-(2-chlorobenzyl)-2-(3-(4-methoxy-2-methylphenyl)-6-oxopyridazin-1(6H)-yl)acetamide] | – | 10 to 100 µM
28 | COc1ccc(-c2ccc(=O)n(CC(=O)NCc3ccccc3Cl)n2)cc1C [IIIa-23, N-(2-chlorobenzyl)-2-(3-(4-methoxy-3-methylphenyl)-6-oxopyridazin-1(6H)-yl)acetamide] | – | 10 to 100 µM
29 | COc1ccc(-c2ccc(=O)n(CC(=O)NCc3ccccc3Cl)n2)cc1F [IIIa-24, N-(2-chlorobenzyl)-2-(3-(3-fluoro-4-methoxyphenyl)-6-oxopyridazin-1(6H)-yl)acetamide] | – | 10 to 100 µM
30 | COc1ccc(-c2ccc(=O)n(CC(=O)NC(C)c3ccccc3Cl)n2)cc1 (stereo not shown) [IIIa-25, N-(1-(2-chlorophenyl)ethyl)-2-(3-(4-methoxyphenyl)-6-oxopyridazin-1(6H)-yl)acetamide] | – | 10 to 100 µM
31 | COc1ccc(-c2ccc(=O)n(CC(=O)NCc3ccon3)n2)cc1 [IIIa-26, N-(isoxazol-3-ylmethyl)-2-(3-(4-methoxyphenyl)-6-oxopyridazin-1(6H)-yl)acetamide] | – | 10 to 100 µM
32 | CCNC(=O)Cn1nc(-c2ccc(OCC3(F)COC3)cc2)ccc1=O [IIIa-27, N-ethyl-2-(3-(4-((3-fluorooxetan-3-yl)methoxy)phenyl)-6-oxopyridazin-1(6H)-yl)acetamide] | – | 10 to 100 µM
33 | COc1ccc(-c2ccc(=O)n(CC(=O)NCc3cnccn3)n2)cc1 [IIIa-28, 2-(3-(4-methoxyphenyl)-6-oxopyridazin-1(6H)-yl)-N-(pyrazin-2-ylmethyl) acetamide] | – | > 100 µM
34 | COc1ccc(-c2ccc(=O)n(CC(=O)NCC3CCOCC3)n2)cc1 [IIIa-29, 2-(3-(4-methoxyphenyl)-6-oxopyridazin-1(6H)-yl)-N-((tetrahydro-2H-pyran-4-yl)methyl) acetamide] | – | > 100 µM
35 | COc1ccc(-c2ccc(=O)n(CC(=O)NCc3ccccn3)n2)cc1 [IIIa-30, 2-(3-(4-methoxyphenyl)-6-oxopyridazin-1(6H)-yl)-N-(pyridin-2-ylmethyl)acetamide] | – | > 100 µM
36 | COc1ccc(-c2ccc(=O)n(CC(=O)NCc3cnoc3)n2)cc1 [IIIa-31, N-(isoxazol-4-ylmethyl)-2-(3-(4-methoxyphenyl)-6-oxopyridazin-1(6H)-yl)acetamide] | – | > 100 µM
37 | COc1ccc(-c2ccc(=O)n(CC(=O)NCc3cnn(C)c3)n2)cc1 [IIIa-32, 2-(3-(4-methoxyphenyl)-6-oxopyridazin-1(6H)-yl)-N-((1-methyl-1H-pyrazol-4-yl)methyl) acetamide] | – | > 100 µM
38 | COc1ccc(-c2ccc(=O)n(CC(=O)NCc3nccn3C)n2)cc1 [IIIa-33, 2-(3-(4-methoxyphenyl)-6-oxopyridazin-1(6H)-yl)-N-((1-methyl-1H-imidazol-2-yl)methyl) acetamide] | – | > 100 µM
39 | COc1ccc(-c2ccc(=O)n(CC(=O)NCc3ccno3)n2)cc1 [IIIa-34, N-(isoxazol-5-ylmethyl)-2-(3-(4-methoxyphenyl)-6-oxopyridazin-1(6H)-yl)acetamide] | – | > 100 µM
40 | COc1ccc(-c2ccc(=O)n(CC(=O)NCc3ccccc3Cl)n2)cc1 [IIIb-1, N-(2-chlorobenzyl)-2-(3-(4-methoxyphenyl)-6-oxopyridazin-1(6H)-yl)acetamide] | – | < 10 µM
41 | COc1ccc(-c2ccc(=O)n(CC(=O)Nc3cccc4[nH]ccc34)n2)c(F)c1 [IIIb-2, 2-(3-(2-fluoro-4-methoxyphenyl)-6-oxopyridazin-1(6H)-yl)-N-(1H-indol-4-yl)acetamide] | – | < 10 µM
42 | COc1ccc(-c2ccc(=O)n(CC(=O)Nc3cccc4[nH]ccc34)n2)cc1 [IIIb-3, N-(1H-indol-4-yl)-2-(3-(4-methoxyphenyl)-6-oxopyridazin-1(6H)-yl)acetamide] | – | < 10 µM
43 | COc1ccc(-c2ccc(=O)n(CC(=O)Nc3cccc4c3ccn4C)n2)cc1 [IIIb-4, 2-(3-(4-methoxyphenyl)-6-oxopyridazin-1(6H)-yl)-N-(1-methyl-1H-indol-4-yl)acetamide] | – | < 10 µM
